According to publication PMC7110753, “Dafachronic acid and temperature regulate canonical dauer pathways during Nippostrongylus brasiliensis infectious larvae activation” (Parasites & Vectors, 2020):

Legend:
Cel-DAF-12 (DAF-12) = Cel-DAF-12 (DAF-12) (Caenorhabditis elegans, UniProt G5EFF5); assay: co-transfection luciferase reporter assay in HEK293 cells (agonist, dose response in Fig. 1b); format: cell-based
[1] = tested on: Nbr-DAF-12 (DAF-12 nuclear hormone receptor); assay: co-transfection luciferase reporter assay in HEK293 cells (agonist)

Cel-DAF-12 (DAF-12), sequence (G5EFF5 whole entry): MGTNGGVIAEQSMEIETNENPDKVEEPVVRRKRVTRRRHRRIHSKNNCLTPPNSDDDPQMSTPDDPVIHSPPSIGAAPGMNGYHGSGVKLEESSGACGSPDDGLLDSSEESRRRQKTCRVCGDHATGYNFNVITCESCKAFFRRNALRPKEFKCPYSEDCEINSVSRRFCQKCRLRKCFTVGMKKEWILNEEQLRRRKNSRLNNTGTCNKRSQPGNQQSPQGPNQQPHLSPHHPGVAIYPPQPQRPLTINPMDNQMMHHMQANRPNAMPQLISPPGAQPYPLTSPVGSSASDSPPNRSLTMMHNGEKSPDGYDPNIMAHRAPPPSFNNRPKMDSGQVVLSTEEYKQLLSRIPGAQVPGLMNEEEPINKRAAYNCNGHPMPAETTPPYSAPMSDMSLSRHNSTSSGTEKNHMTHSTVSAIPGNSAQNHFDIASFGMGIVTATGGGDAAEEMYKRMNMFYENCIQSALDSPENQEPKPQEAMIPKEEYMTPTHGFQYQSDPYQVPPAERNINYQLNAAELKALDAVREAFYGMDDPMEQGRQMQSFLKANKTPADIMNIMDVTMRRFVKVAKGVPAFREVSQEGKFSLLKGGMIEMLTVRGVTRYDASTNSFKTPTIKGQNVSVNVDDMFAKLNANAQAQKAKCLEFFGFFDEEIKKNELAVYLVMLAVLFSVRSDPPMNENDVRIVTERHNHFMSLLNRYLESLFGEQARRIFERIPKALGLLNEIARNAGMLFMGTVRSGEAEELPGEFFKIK

Δ7-dafachronic acid
co-transfection luciferase reporter assay in HEK293 cells (agonist, dose respons) (Cel-DAF-12 (DAF-12)): responds more weakly to Δ7-dafachronic acid than DAF-12 from either the canine hookworm A. caninum (Aca-DAF-12) or the free-living C. elegans | EC50 [1]: 115 nM
